{"source": "ChEMBL document CHEMBL4145533", "about": "“6,7-Dimorpholinoalkoxy quinazoline derivatives as potent EGFR inhibitors with enhanced antiproliferative activities against tumor cells” (Eur J Med Chem, 2018)", "key": {"A549 [1]": {"system": "A549", "assay": "Cell cycle arrest in human A549 cells assessed as accumulation at G0/G1 phase at 5 uM after 48 hrs by propidium iodide satining based FACS analysis (reference value: 48.87%)", "type": "functional"}, "[2]": {"target": "T1, Epidermal growth factor receptor (Homo sapiens, UniProt P00533)", "T1 sequence (P00533 whole entry)": "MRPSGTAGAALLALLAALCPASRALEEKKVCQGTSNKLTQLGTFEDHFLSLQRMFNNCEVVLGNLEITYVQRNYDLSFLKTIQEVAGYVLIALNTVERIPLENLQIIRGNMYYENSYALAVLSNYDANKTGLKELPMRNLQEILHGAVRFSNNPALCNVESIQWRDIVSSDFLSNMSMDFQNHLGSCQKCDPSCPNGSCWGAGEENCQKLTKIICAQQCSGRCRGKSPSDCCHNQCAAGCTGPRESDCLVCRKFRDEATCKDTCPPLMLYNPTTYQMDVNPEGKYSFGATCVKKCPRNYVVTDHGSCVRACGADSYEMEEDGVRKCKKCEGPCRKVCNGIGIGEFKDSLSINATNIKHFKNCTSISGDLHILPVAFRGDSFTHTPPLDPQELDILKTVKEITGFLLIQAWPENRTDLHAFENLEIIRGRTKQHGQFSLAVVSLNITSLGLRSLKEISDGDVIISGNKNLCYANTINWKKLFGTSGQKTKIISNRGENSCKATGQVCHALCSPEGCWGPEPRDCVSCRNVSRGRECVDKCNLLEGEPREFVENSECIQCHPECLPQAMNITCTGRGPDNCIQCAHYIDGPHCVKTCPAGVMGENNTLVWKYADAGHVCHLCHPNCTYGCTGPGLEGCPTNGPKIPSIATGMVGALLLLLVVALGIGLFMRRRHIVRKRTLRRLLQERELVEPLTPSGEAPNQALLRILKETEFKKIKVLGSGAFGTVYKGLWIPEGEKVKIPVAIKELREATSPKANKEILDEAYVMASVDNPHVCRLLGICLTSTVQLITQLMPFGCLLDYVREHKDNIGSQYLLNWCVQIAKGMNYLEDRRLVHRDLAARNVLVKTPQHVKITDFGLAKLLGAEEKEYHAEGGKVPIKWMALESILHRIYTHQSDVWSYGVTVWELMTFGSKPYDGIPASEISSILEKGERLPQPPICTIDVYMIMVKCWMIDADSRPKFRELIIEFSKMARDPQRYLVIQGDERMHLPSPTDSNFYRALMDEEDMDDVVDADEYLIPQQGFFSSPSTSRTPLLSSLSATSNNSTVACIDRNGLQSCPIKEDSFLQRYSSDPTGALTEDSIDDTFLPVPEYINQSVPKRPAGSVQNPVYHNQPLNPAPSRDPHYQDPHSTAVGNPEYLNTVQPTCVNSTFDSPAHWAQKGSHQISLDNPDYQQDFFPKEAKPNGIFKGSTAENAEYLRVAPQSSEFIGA", "assay": "Inhibition of EGF-induced EGFR phosphorylation at Y992 residue in human A549 cells at 0.2 uM preincubated for 2 hrs followed by EGF stimulation measured after 10 mins by Western blot analysis", "type": "cell-based"}, "HCC827": {"system": "HCC827", "assay": "Antiproliferative activity against human HCC827 cells harboring EGFR E746-A750 del mutant after 72 hrs by MTT assay", "type": "functional, cell-based", "conditions": "HCC827, 72 h"}, "[3]": {"target": "T1, Epidermal growth factor receptor", "conditions": "A549, at 5 µM", "description": "Inhibition of EGF-induced EGFR activation in human A549 cells assessed as reduction in ERK1/2 phosphorylation at T202/Y204 residues at 5 uM preincubated for 2 hrs followed by EGF stimulation measured after 10 mins by Western blot analysis"}, "A549 [4]": {"system": "A549", "assay": "Induction of apoptosis in human A549 cells after 48 hrs by Annexin V-FITC/propidium iodide satining based FACS analysis", "type": "functional, cell-based"}, "A549 [5]": {"system": "A549", "assay": "Induction of apoptosis in human A549 cells assessed as late apoptotic cells at 1 uM after 48 hrs by Annexin V-FITC/propidium iodide satining based FACS analysis (reference value: 1.21%)", "type": "functional"}, "[6]": {"system": "Epidermal growth factor receptor (Homo sapiens), P00533 [L858R,T790M]", "sequence (P00533 whole entry T790M/L858R, looked up)": "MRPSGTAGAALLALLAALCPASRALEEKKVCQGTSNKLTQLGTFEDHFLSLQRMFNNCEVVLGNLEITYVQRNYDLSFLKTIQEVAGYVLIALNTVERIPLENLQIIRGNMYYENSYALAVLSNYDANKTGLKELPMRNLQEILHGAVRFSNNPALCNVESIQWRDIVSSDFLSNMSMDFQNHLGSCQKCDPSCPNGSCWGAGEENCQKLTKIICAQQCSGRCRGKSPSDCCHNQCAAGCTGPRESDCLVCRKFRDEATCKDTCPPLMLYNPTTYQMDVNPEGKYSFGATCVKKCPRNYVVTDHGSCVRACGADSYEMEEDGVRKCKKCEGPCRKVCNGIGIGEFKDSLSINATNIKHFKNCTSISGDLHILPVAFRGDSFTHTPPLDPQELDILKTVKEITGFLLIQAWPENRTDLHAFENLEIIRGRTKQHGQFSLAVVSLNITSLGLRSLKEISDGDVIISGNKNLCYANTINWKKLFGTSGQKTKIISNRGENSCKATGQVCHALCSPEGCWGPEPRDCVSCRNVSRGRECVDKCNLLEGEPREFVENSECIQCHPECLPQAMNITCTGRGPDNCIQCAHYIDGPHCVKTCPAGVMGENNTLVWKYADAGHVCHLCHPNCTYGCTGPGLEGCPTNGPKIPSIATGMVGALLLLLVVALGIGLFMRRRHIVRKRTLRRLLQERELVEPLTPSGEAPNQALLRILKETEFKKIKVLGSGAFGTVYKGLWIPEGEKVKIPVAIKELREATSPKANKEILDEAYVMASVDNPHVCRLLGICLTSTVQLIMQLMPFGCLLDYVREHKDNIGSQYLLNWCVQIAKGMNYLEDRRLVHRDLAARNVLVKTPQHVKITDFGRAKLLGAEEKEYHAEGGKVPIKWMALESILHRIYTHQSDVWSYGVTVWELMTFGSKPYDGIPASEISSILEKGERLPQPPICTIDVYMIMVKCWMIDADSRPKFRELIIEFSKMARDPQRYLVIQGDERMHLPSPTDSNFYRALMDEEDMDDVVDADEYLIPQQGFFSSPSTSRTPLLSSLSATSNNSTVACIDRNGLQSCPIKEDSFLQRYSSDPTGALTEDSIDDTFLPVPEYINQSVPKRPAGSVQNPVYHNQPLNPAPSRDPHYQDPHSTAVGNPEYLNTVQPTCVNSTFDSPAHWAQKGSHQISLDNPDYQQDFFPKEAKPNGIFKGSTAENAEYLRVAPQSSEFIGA", "assay": "Inhibition of EGF-induced EGFR L858R/T790M double mutant activation in human NCI-H1975 cells assessed as reduction in ERK1/2 phosphorylation at T202/Y204 residues at 5 uM preincubated for 2 hrs followed by EGF stimulation measured after 10 mins by Western blot analysis", "type": "cell-based"}, "A549 [7]": {"system": "A549", "assay": "Induction of apoptosis in human A549 cells assessed as late apoptotic cells at 3 uM after 48 hrs by Annexin V-FITC/propidium iodide satining based FACS analysis (reference value: 1.21%)", "type": "functional"}, "A549 [8]": {"system": "A549", "assay": "Cell cycle arrest in human A549 cells assessed as accumulation at S phase at 0.5 uM after 48 hrs by propidium iodide satining based FACS analysis (reference value: 34.45%)", "type": "functional"}, "A549 [9]": {"system": "A549", "assay": "Cell cycle arrest in human A549 cells assessed as accumulation at G0/G1 phase at 0.5 uM after 48 hrs by propidium iodide satining based FACS analysis (reference value: 48.87%)", "type": "functional"}, "[10]": {"target": "Epidermal growth factor receptor (Homo sapiens, UniProt P00533, L858R)", "sequence (P00533 25-1210 L858R limits assumed)": "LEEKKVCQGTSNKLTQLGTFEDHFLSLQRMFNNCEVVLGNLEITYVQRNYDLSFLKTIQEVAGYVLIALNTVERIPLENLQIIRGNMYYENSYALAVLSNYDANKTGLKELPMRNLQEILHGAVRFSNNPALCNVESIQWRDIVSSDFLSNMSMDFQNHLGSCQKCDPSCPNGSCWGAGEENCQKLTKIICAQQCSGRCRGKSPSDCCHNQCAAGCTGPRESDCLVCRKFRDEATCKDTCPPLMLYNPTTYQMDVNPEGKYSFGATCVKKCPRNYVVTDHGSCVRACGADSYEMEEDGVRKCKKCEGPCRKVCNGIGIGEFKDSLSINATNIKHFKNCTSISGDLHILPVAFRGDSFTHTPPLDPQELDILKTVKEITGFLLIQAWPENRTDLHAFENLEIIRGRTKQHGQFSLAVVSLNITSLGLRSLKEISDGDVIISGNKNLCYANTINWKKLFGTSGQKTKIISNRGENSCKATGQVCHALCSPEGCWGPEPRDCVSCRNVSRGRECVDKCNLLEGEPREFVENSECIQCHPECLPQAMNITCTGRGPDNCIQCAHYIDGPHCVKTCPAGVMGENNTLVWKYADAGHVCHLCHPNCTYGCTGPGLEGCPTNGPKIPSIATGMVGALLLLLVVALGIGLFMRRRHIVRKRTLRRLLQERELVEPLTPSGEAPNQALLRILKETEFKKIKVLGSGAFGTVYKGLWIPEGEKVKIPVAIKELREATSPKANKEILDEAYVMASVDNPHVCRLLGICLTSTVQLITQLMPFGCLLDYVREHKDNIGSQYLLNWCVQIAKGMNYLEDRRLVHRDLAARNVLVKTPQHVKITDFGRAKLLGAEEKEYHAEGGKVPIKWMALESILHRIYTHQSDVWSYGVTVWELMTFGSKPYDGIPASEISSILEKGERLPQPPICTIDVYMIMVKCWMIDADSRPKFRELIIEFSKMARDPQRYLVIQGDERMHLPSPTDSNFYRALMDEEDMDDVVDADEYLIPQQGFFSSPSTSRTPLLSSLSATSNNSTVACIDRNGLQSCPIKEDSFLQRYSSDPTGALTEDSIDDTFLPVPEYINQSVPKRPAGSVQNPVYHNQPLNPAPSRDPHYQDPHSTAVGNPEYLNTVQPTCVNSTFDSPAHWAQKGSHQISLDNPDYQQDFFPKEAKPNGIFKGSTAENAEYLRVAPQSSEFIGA", "assay": "Inhibition of EGFR L858R mutant (unknown origin) using ULight-poly GT as substrate preincubated for 120 mins followed by substrate addition measured after 2 hrs by spectrophotometric method"}, "[11]": {"target": "Epidermal growth factor receptor (Homo sapiens, UniProt P00533, L858R/T790M)", "sequence (P00533 25-1210 T790M/L858R limits assumed)": "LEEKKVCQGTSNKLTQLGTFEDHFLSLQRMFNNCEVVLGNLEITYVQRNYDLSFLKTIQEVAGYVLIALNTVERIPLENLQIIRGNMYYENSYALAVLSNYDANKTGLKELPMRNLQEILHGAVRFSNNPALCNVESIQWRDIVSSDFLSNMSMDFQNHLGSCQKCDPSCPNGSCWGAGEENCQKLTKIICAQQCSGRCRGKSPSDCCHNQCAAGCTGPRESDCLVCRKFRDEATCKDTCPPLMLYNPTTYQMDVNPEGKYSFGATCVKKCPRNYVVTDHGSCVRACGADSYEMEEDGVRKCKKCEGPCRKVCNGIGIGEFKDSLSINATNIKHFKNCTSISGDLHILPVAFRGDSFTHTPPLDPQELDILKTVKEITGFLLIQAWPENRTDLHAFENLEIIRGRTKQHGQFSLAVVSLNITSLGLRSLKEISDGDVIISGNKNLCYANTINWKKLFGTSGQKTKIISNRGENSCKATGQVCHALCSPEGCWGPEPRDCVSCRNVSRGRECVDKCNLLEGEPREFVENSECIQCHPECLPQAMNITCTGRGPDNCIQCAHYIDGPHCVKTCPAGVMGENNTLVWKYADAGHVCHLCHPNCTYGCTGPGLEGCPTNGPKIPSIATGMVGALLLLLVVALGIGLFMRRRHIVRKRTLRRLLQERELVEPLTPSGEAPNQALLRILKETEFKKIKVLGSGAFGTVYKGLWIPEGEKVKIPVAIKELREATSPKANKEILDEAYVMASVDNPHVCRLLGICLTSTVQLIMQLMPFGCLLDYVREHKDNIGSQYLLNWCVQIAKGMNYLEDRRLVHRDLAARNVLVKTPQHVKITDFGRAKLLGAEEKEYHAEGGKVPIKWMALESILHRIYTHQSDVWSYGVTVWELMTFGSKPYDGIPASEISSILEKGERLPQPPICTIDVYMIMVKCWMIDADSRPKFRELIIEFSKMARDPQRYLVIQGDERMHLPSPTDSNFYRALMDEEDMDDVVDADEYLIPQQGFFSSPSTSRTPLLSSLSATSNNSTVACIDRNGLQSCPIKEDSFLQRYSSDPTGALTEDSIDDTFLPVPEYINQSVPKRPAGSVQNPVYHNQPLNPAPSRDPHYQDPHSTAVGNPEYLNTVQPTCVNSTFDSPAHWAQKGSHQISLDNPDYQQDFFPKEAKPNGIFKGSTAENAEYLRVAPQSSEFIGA", "assay": "Inhibition of EGFR L858R/T790M double mutant (unknown origin) using ULight-poly GT as substrate preincubated for 30 mins followed by substrate addition measured after 1 hr by spectrophotometric method"}, "[12]": {"system": "Epidermal growth factor receptor (Homo sapiens), P00533 [L858R,T790M]", "assay": "Inhibition of EGF-induced EGFR L858R/T790M double mutant phosphorylation at Y1068 residue in human NCI-H1975 cells preincubated for 2 hrs followed by EGF stimulation measured after 10 mins by Western blot analysis", "type": "cell-based"}, "[13]": {"system": "Epidermal growth factor receptor (Homo sapiens), P00533 [L858R,T790M]", "assay": "Inhibition of EGF-induced EGFR L858R/T790M double mutant activation in human NCI-H1975 cells assessed as reduction in Akt phosphorylation at S473 residue at 5 uM preincubated for 2 hrs followed by EGF stimulation measured after 10 mins by Western blot analysis", "type": "cell-based"}, "[14]": {"target": "T1, Epidermal growth factor receptor", "assay": "Inhibition of EGF-induced EGFR activation in human A549 cells assessed as reduction in STAT3 phosphorylation at 0.2 to 5 uM preincubated for 2 hrs followed by EGF stimulation measured after 10 mins by Western blot analysis", "type": "cell-based"}, "SW480": {"system": "SW480", "assay": "Antiproliferative activity against human SW480 cells harboring wild type EGFR after 72 hrs by MTT assay", "type": "functional, cell-based", "conditions": "SW480, 72 h"}, "A549 [15]": {"system": "A549", "assay": "Cell cycle arrest in human A549 cells assessed as accumulation at S phase at 1 uM after 48 hrs by propidium iodide satining based FACS analysis (reference value: 34.45%)", "type": "functional"}, "A549 [16]": {"system": "A549", "assay": "Cell cycle arrest in human A549 cells assessed as accumulation at G2/M phase at 5 uM after 48 hrs by propidium iodide satining based FACS analysis (reference value: 16.09%)", "type": "functional"}, "A549 [17]": {"system": "A549", "assay": "Cell cycle arrest in human A549 cells assessed as accumulation at G0/G1 phase at 1 uM after 48 hrs by propidium iodide satining based FACS analysis (reference value: 48.87%)", "type": "functional"}, "A549 [18]": {"system": "A549", "assay": "Induction of apoptosis in human A549 cells assessed as viable cells at 2 uM after 48 hrs by Annexin V-FITC/propidium iodide satining based FACS analysis (reference value: 95.87%)", "type": "functional", "conditions": "A549, 48 h, read-out: Activity"}, "A549 [19]": {"system": "A549", "assay": "Induction of apoptosis in human A549 cells assessed as late apoptotic cells at 2 uM after 48 hrs by Annexin V-FITC/propidium iodide satining based FACS analysis (reference value: 1.21%)", "type": "functional"}, "A549 [20]": {"system": "A549", "assay": "Induction of apoptosis in human A549 cells assessed as late apoptotic cells at 4 uM after 48 hrs by Annexin V-FITC/propidium iodide satining based FACS analysis (reference value: 1.21%)", "type": "functional"}, "[21]": {"target": "T1, Epidermal growth factor receptor", "assay": "Inhibition of EGF-induced EGFR activation in human A549 cells assessed as reduction in Akt phosphorylation at S473 residue at 0.2 uM preincubated for 2 hrs followed by EGF stimulation measured after 10 mins by Western blot analysis", "type": "cell-based"}, "[22]": {"target": "T1, Epidermal growth factor receptor", "assay": "Inhibition of EGF-induced EGFR phosphorylation at Y1086 residue in human A549 cells at 0.2 uM preincubated for 2 hrs followed by EGF stimulation measured after 10 mins by Western blot analysis", "type": "cell-based"}, "A549 [23]": {"system": "A549", "assay": "Effect on total Erk1/2 protein expression in human A549 cells at 0.2 to 5 uM after 2 hrs by Western blot analysis", "type": "ADME, cell-based", "conditions": "a549, 2 h"}, "NCI-H1975": {"system": "NCI-H1975", "assay": "Antiproliferative activity against human NCI-H1975 cells harboring EGFR L858R/T790M double mutant after 72 hrs by MTT assay", "type": "functional, cell-based", "conditions": "NCI-H1975, 72 h"}, "A549 [24]": {"system": "A549", "assay": "Cell cycle arrest in human A549 cells assessed as accumulation at G2/M phase at 1 uM after 48 hrs by propidium iodide satining based FACS analysis (reference value: 16.09%)", "type": "functional"}, "A549 [25]": {"system": "A549", "assay": "Induction of apoptosis in human A549 cells assessed as viable cells at 3 uM after 48 hrs by Annexin V-FITC/propidium iodide satining based FACS analysis (reference value: 95.87%)", "type": "functional", "conditions": "A549, 48 h, read-out: Activity"}, "A549 [26]": {"system": "A549", "assay": "Effect on total Akt protein expression in human A549 cells at 0.2 to 5 uM after 2 hrs by Western blot analysis", "type": "ADME, cell-based", "conditions": "a549, 2 h"}, "[27]": {"system": "Epidermal growth factor receptor (Homo sapiens), P00533 [L858R,T790M]", "assay": "Inhibition of EGF-induced EGFR L858R/T790M double mutant phosphorylation at Tyrosine residue in human NCI-H1975 cells preincubated for 2 hrs followed by EGF stimulation measured after 10 mins by Western blot analysis", "type": "cell-based"}, "A549 [28]": {"system": "A549", "assay": "Induction of apoptosis in human A549 cells assessed as early apoptotic cells at 2 uM after 48 hrs by Annexin V-FITC/propidium iodide satining based FACS analysis (reference value: 2.78%)", "type": "functional"}, "A549 [29]": {"system": "A549", "assay": "Cell cycle arrest in human A549 cells assessed as accumulation at G2/M phase at 2 uM after 48 hrs by propidium iodide satining based FACS analysis (reference value: 16.09%)", "type": "functional"}}, "note": "The source made the active and inactive calls. No cut-off for these calls is given here.", "data": [{"compound": "Fc1cccc(COc2ccc(Nc3ncnc4cc(OCCCN5CCOCC5)c(OCCCN5CCOCC5)cc34)cc2Cl)c1", "values": [{"measurement": "Activity", "setting": "A549 [1]", "value": 73.54, "unit": "%"}, {"measurement": "inhibition", "setting": "[2]", "value": "Active"}, {"measurement": "IC50", "setting": "HCC827", "value": 370, "unit": "nM"}, {"measurement": "inhibition", "setting": "[3]", "value": "Active"}, {"measurement": "Activity", "setting": "A549 [4]", "value": "Dose-dependent effect"}, {"measurement": "Activity", "setting": "A549 [5]", "value": 3.43, "unit": "%"}, {"measurement": "inhibition", "setting": "[6]", "value": "Active"}, {"measurement": "Activity", "setting": "A549 [7]", "value": 8.5, "unit": "%"}, {"measurement": "Activity", "setting": "A549 [8]", "value": 33.8, "unit": "%"}, {"measurement": "Activity", "setting": "A549 [9]", "value": 50.78, "unit": "%"}, {"measurement": "IC50", "setting": "[10]", "value": 323, "unit": "nM"}, {"measurement": "IC50", "setting": "[11]", "value": "> 2000", "unit": "nM"}, {"measurement": "inhibition", "setting": "[12]", "value": "Dose-dependent effect"}, {"measurement": "inhibition", "setting": "[13]", "value": "Active"}, {"measurement": "inhibition", "setting": "[14]", "value": "inactive"}, {"measurement": "IC50", "setting": "SW480", "value": 3270, "unit": "nM"}, {"measurement": "Activity", "setting": "A549 [15]", "value": 34.83, "unit": "%"}, {"measurement": "Activity", "setting": "A549 [16]", "value": 8.8, "unit": "%"}, {"measurement": "Activity", "setting": "A549 [17]", "value": 52.91, "unit": "%"}, {"measurement": "viability at 2 µM", "setting": "A549 [18]", "value": 87.9, "unit": "%"}, {"measurement": "Activity", "setting": "A549 [19]", "value": 7.37, "unit": "%"}, {"measurement": "Activity", "setting": "A549 [20]", "value": 36.18, "unit": "%"}, {"measurement": "inhibition", "setting": "[21]", "value": "Active"}, {"measurement": "inhibition", "setting": "[22]", "value": "Active"}, {"measurement": "Activity", "setting": "A549 [23]", "value": "Non-Toxic"}, {"measurement": "IC50", "setting": "NCI-H1975", "value": 4870, "unit": "nM"}, {"measurement": "Activity", "setting": "A549 [24]", "value": 11.69, "unit": "%"}, {"measurement": "viability at 3 µM", "setting": "A549 [25]", "value": 82.8, "unit": "%"}, {"measurement": "Activity", "setting": "A549 [26]", "value": "Non-Toxic"}, {"measurement": "inhibition", "setting": "[27]", "value": "Dose-dependent effect"}, {"measurement": "Activity", "setting": "A549 [28]", "value": 4.46, "unit": "%"}, {"measurement": "Activity", "setting": "A549 [29]", "value": 10.56, "unit": "%"}]}]}
